The record followed here is patent US5750499A, “Receptor-selective somatostatin analogs” (The Salk Institute for Biological Studies, priority 1995, dated 1998).

Entries after “also recorded” stand apart in the source; their conditions may differ. Where a SMILES comes first, the peptide text is derived from it. Bridges are numbered along the chain shown (N, C = ends). Where no end group is shown, it is not given here. [ ]: non-standard residue; d: D form. The star is where a group is joined. Phe(4-CH2NHiPr) = CC(C)NCc1ccc(C[C@H](N)C(=O)O)cc1; Tyr(3-I) = N[C@@H](Cc1ccc(O)c(I)c1)C(=O)O; 125I = [125I]*

One assay concerns the target T1, mSSTR2 (Mus musculus, UniProt P30875).
T1 construct: expressed in transfected cells; host or cells: COS and CHO cells
Put plainly: Inhibition of [125I-Tyr11]SRIF binding to cloned mSSTR2 (Table). How it is done:
(§1) In vitro Bioassay: The effects of the various somatostatin analogs are tested in vitro for their ability to bind to isolated cloned receptors expressed on COS and CHO cells.
(§2) The molecular cloning of the genes encoding multiple somatostatin receptor subtypes permits the individual expression of these receptors in mammalian cells and the characterization of their respective pharmacological profiles.
(§3) Certain of the measurements are in progress.

The target in the next assay is T2, mSSTR3 (Mus musculus, UniProt P30935).
T2 construct: expressed in transfected cells; host or cells: COS and CHO cells
Put plainly: Inhibition of [125I-Tyr11]SRIF binding to cloned mSSTR3 (Table). How it is done:
as §1, §2, §3

The target of the next assay is T3, mSSTR1 (Mus musculus, UniProt P30873).
T3 construct: expressed in transfected cells; host or cells: COS and CHO cells
Put plainly: Inhibition of [125I-Tyr11]SRIF binding to cloned mSSTR1 (Table). How it is done: as §1, §2, §3

Assay [1] deals with COS-7 cells expressing SSTR1. Put plainly: Forskolin-stimulated cAMP formation in COS-7 cells expressing SSTR1. Particulars: 1 μM of Peptide No. 2. The assay is classed as cell-based.
The target in another assay is T4, SSTR5 (Rattus norvegicus, UniProt P30938).
T4 construct: expressed in transfected cells; host or cells: COS and CHO cells
T4 sequence (P30938 1-363): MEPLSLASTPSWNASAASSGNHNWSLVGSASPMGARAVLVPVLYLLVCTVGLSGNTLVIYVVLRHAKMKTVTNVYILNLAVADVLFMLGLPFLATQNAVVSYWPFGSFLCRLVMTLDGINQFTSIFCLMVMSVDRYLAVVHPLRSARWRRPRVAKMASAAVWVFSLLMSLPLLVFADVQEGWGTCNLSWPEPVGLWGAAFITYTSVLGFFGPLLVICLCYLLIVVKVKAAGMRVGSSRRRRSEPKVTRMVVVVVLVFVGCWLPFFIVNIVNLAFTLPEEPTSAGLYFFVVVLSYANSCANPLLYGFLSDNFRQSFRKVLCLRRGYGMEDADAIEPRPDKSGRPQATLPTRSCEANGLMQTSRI
Put plainly: Direct binding of iodinated Peptide No. 5 to cloned SSTR5. The source says:
(§4) The Bmax value represents the highest number of specific sites which can be occupied at a given time, i.e. the saturation point.

In assay [2] the target is T5, SSTR1 (Homo sapiens, UniProt P30872).
T5 construct: expressed in transfected cells; host or cells: COS and CHO cells
Put plainly: Direct saturation binding of iodinated Peptide No. 5 to cloned SSTR1. The following applies: iodinated peptide as radioligand.
Description: (§5) Alternatively, IC50 values indicative of the concentration of a competitive ligand necessary to displace a saturation concentration of a target ligand being measured from 50% of binding sites can also be calculated in such competitive assays.
as §4

The target of assay [3] is T6, SSTR1 expressed in COS-7 cells (Homo sapiens, UniProt P30872).
T6 construct: expressed in transfected cells; host or cells: COS-7 cells
Put plainly: GTPgS and pertussis toxin regulation of radioligand binding to SSTR1 expressed in COS-7 cells.
Description: as §4

A further assay deals with T7, SSTR4 (Homo sapiens, UniProt P31391).
T7 construct: expressed in transfected cells; host or cells: COS and CHO cells
Put plainly: Direct binding of iodinated Peptide No. 5 to cloned SSTR4.
Description: as §4

In a further assay the target is T8, SSTR2 (Mus musculus, UniProt P30875).
T8 construct: expressed in transfected cells; host or cells: COS and CHO cells
Put plainly: Direct binding of iodinated Peptide No. 5 to cloned SSTR2.
Description: as §4

A further assay concerns the target T9, SSTR3 (Mus musculus, UniProt P30935).
T9 construct: expressed in transfected cells; host or cells: COS and CHO cells
Put plainly: Direct binding of iodinated Peptide No. 5 to cloned SSTR3.
Description: as §4

For assay [4], the target named is T5, SSTR1. Put plainly: Inhibition of binding of iodinated Peptide No. 5 to SSTR1. Particulars: radioligand iodinated Peptide No. 5.
Description: as §5, §4

The target in assay [5] is T5, SSTR1. Put plainly: Inhibition of [125I-Tyr11]SRIF binding to cloned human SSTR1. How it is done:
In a typical assay, an amount of protein from the cell homogenate is placed into a small volume of an appropriate assay buffer at an appropriate pH.
as §5, §1, §2

T1 sequence (P30875 whole entry): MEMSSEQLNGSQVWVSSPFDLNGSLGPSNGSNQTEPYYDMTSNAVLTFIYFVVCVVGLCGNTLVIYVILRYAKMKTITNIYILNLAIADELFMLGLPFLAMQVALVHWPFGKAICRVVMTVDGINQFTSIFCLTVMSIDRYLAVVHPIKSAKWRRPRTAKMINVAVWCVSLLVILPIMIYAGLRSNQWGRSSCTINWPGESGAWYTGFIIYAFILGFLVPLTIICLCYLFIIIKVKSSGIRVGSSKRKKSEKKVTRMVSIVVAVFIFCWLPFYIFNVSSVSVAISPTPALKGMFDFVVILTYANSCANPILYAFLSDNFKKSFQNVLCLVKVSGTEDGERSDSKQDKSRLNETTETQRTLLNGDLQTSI
T3 sequence (P30873 whole entry): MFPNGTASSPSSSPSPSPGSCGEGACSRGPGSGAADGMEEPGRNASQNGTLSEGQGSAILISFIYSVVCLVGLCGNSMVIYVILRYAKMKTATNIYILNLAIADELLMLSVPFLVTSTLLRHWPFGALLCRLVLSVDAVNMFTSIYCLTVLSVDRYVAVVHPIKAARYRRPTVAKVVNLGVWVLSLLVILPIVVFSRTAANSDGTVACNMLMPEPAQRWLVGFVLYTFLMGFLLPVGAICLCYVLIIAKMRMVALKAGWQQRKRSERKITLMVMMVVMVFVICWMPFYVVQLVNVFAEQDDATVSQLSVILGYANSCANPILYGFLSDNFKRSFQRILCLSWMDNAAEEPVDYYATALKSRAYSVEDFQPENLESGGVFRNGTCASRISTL
T5 sequence (P30872 whole entry): as the sequence (P30873 whole entry) above, with A25G, C26G, S32A, A385T, S389T counted along it
T6 sequence (P30872 whole entry): as the sequence (P30873 whole entry) above, with A25G, C26G, S32A, A385T, S389T counted along it
T2 sequence (P30935 whole entry): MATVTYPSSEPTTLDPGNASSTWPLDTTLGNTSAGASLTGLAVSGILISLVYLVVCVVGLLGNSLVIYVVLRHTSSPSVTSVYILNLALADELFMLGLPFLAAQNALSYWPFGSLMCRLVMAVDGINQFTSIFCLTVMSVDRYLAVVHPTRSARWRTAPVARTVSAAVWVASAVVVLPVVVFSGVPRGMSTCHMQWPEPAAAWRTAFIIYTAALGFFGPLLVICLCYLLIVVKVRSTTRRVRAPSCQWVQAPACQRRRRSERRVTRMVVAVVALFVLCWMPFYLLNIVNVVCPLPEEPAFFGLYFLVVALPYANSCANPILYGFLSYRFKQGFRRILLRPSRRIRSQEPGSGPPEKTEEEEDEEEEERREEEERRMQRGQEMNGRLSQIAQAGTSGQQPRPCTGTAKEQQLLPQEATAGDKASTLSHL
T8 sequence (P30875 whole entry): as the sequence (P30875 whole entry) above
T7 sequence (P31391 whole entry): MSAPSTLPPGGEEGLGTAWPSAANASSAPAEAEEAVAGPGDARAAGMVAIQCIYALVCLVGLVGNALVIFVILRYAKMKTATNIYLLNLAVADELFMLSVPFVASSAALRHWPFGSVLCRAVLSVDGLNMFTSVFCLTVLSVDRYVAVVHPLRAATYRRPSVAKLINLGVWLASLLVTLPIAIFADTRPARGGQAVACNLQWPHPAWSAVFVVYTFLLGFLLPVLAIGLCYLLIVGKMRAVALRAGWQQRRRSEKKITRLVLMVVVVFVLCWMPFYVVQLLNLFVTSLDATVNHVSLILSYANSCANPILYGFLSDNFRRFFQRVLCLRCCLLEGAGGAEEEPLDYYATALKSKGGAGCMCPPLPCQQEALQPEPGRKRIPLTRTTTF
T9 sequence (P30935 whole entry): as the sequence (P30935 whole entry) above

In the case of `CC(C)NCc1ccc(C[C@@H]2NC(=O)[C@@H](Cc3c[nH]c4ccccc34)NC(=O)[C@H](Cc3ccccc3)NC(=O)[C@H](Cc3ccccc3)NC(=O)[C@H](CCCCN)NC(=O)[C@@H](NC(=O)[C@@H](N)Cc3ccc(O)cc3)CSSC[C@@H](C(=O)O)NC(=O)[C@H](CO)NC(=O)[C@H]([C@@H](C)O)NC(=O)[C@H](Cc3ccccc3)NC(=O)[C@H]([C@@H](C)O)NC2=O)cc1` [Peptide No. 5] (H-YCKFF[dW][Phe(4-CH2NHiPr)]TFTSC-OH; disulfide 2-12), the IC50 on mSSTR2 was > 100 nM; on mSSTR3, > 100 nM; on mSSTR1, 0.8 nM.
In the case of `CC(C)NCc1ccc(C[C@@H]2NC(=O)[C@@H](Cc3c[nH]c4ccccc34)NC(=O)[C@H](Cc3ccccc3)NC(=O)[C@H](Cc3ccccc3)NC(=O)[C@@H](N)CSSC[C@@H](C(=O)O)NC(=O)[C@H](Cc3ccccc3)NC(=O)[C@H]([C@@H](C)O)NC2=O)cc1` [[IAmp^9]ODT8, [IAmp^5]-ODT8] (H-CFF[dW][Phe(4-CH2NHiPr)]TFC-OH; disulfide 1-8), the IC50 was > 1000 nM on mSSTR2, 500 nM on mSSTR3 and 160 nM on mSSTR1.
For `CC(C)NCc1ccc(C[C@@H]2NC(=O)[C@@H](Cc3c[nH]c4ccccc34)NC(=O)[C@H](Cc3ccccc3)NC(=O)[C@H](Cc3ccccc3)NC(=O)[C@H](CC(N)=O)NC(=O)[C@H](CCCCN)NC(=O)[C@@H](N)CSSC[C@@H](C(=O)O)NC(=O)[C@H](CO)NC(=O)[C@H]([C@@H](C)O)NC(=O)[C@H](Cc3ccccc3)NC(=O)[C@H]([C@@H](C)O)NC2=O)cc1` [Peptide No. 9] (H-CKNFF[dW][Phe(4-CH2NHiPr)]TFTSC-OH; disulfide 1-12) the same measures were > 1000 nM, > 1000 nM and 54 nM.
Take `C[C@H](N)C(=O)NCC(=O)N[C@H]1CSSC[C@@H](C(=O)O)NC(=O)[C@H](CO)NC(=O)[C@H]([C@@H](C)O)NC(=O)[C@H](Cc2ccccc2)NC(=O)[C@H]([C@@H](C)O)NC(=O)[C@H](CCCCN)NC(=O)[C@H](Cc2c[nH]c3ccccc23)NC(=O)[C@H](Cc2ccccc2)NC(=O)[C@H](Cc2ccccc2)NC(=O)[C@H](CC(N)=O)NC(=O)[C@H](CCCCN)NC1=O` [SRIF, somatostatin-14]: the “inhibition of forskolin-stimulated cAMP formation” value in assay [1] was “Neither 1 μM of Peptide No. 2, nor SRIF itself, inhibits forskolin-stimulated cAMP formation”.
Regarding `CC(C)NCc1ccc(C[C@@H]2NC(=O)[C@@H](Cc3c[nH]c4ccccc34)NC(=O)[C@H](Cc3ccccc3)NC(=O)[C@H](Cc3ccccc3)NC(=O)[C@H](CCCCN)NC(=O)[C@@H](NC(=O)[C@@H](N)Cc3ccc(O)c(I)c3)CSSC[C@@H](C(=O)O)NC(=O)[C@H](CO)NC(=O)[C@H]([C@@H](C)O)NC(=O)[C@H](Cc3ccccc3)NC(=O)[C@H]([C@@H](C)O)NC2=O)cc1` [^125 I-Tyr^2-des-AA^1,5-[D-Trp^8,IAmp^9]SRIF] (H-[Tyr(3-I)]CKFF[dW][Phe(4-CH2NHiPr)]TFTSC-OH; disulfide 2-12), the “specific binding of iodinated peptide to SSTR5” value on SSTR5 is reported as “did not bind”. The “Bmax, binding to SSTR1” value at SSTR1 [2] was 226±56 fmol/mg protein. In addition, the “effect of GTPgS and pertussis toxin treatment on binding of the radioligand to SSTR1” value in assay [3] was “reduced by GTPgS and pertussis toxin treatment”. The “specific binding of iodinated peptide to SSTR4” value at SSTR4 is “did not bind”. For the same compound, on SSTR2, the “specific binding of iodinated peptide to SSTR2” value is on record as “did not bind”. The “specific binding of iodinated peptide to SSTR3” value at SSTR3 was “did not bind”.
`CC(C)NCc1ccc(C[C@@H]2NC(=O)[C@@H](Cc3c[nH]c4ccccc34)NC(=O)[C@H](Cc3ccccc3)NC(=O)[C@H](Cc3ccccc3)NC(=O)[C@H](CCCCN)NC(=O)[C@@H](N)CSSC[C@@H](C(=O)O)NC(=O)[C@@H](CO)NC(=O)[C@H]([C@@H](C)O)NC(=O)[C@H](Cc3ccccc3)NC(=O)[C@H]([C@@H](C)O)NC2=O)cc1` [Peptide No. 4, des-AA^1,2,5-[D-Trp^8, IAmp^9, D-Ser^13]SRIF] (H-CKFF[dW][Phe(4-CH2NHiPr)]TFT[dS]C-OH; disulfide 1-11): the IC50 on mSSTR2 is > 1000 nM; at mSSTR3, 178 nM; on mSSTR1, 1.25 nM; at SSTR1 [4], 5.3 ± 0.8 nM.
As for `CC(C)NCc1ccc(C[C@@H]2NC(=O)[C@@H](Cc3c[nH]c4ccccc34)NC(=O)[C@H](Cc3ccccc3)NC(=O)[C@H](Cc3ccccc3)NC(=O)[C@H](CCCCN)NC(=O)[C@@H](N)CSSC[C@@H](C(=O)O)NC(=O)[C@H](CO)NC(=O)[C@H]([C@@H](C)O)NC(=O)[C@H](Cc3ccccc3)NC(=O)[C@H]([C@@H](C)O)NC2=O)cc1` [Peptide No. 2, des-AA^1,2,5 [D-Trp^8, IAmp^9]-SRIF] (H-CKFF[dW][Phe(4-CH2NHiPr)]TFTSC-OH; disulfide 1-11), the IC50 at mSSTR2 is 1100 nM; at SSTR1 [5] it was 1.8 ± 0.7 nM; on mSSTR3, 1000 nM; at mSSTR1, 1 nM.
With “[^125 I-Tyr^11 ]SRIF (AGCKNFFWKTY(125I)TSC; ends and bridges not checked; UniProt P61278 103-116, looked up, variant F11Y)”, the “effect of GTPgS and pertussis toxin treatment on binding of the radioligand to SSTR1” value in assay [3] was “did not diminish; also recorded: not significantly effected by GTP analogs nor pertussis toxin treatment”.
